# Experimental data from patent US9962405B2, “Antiviral gel combination” (YEDITEPE UNIVERSITESI, priority 2013, dated 2018).
# Experiments:
# [1] = test system: Vero cells; details: chlorhexidine at 0.002%; known from reference [12]; cited from earlier work
# [2] = test system: HSV-1 virus; details: in vitro, vero cells; cited from earlier work
# [3] = test system: Herpes Simplex Type 1 virus; experiment: Antiviral activity on HSV type 1 in Vero cells, cell viability by MTS, viral inhibition calculated; assay type: cell-based; details: tested at 0.0005, 0.001 and 0.002%, HSV-1 dilutions 10^-2 to 10^-5
# Protocol: Vero cells and Herpes Simplex Type 1 virus were used in order to observe the activity of the antiviral gel formulation; which is composed of a mixture of sodium pentaborate pentahydrate chlorhexidine and poloxamer; on Herpes Simplex Type 1 virus. Virus stock dilutions were prepared and used for the analysis. Five different concentrations were prepared from the main stock up to 10^−5 concentration and among these concentrations, the dilution of 10^−1 concentration was cancelled since no viable cell was observed. The other antiviral analyses were made at four different concentration values ranging from 10^−2 to 10^−5. Chlorhexidine was applied at three different concentrations: 0.0005-0.001-0.002%.
# [4] = test system: Herpes simplex virus; details: topically applied on infected skin, animal studies; cited from earlier work
structure (smiles),measurement,setting,value
[H]/N=C(\N/C(=N/[H])NCCCCCCNC(=N)NC(=N)Nc1ccc(Cl)cc1)Nc1ccc(Cl)cc1 [chlorhexidine],cytotoxic effect,[1],cytotoxic effect
same,inhibition of viral replication of HSV-1,[2],inhibits viral replication
same,concentration of chlorhexidine alone at which the best antiviral activity was observed,[3],0.002%
same,inhibition of virus proliferation and lesion formation,[4],inhibits the virus from proliferating and forming lesions
